Reference: patent publication US20240139147A1, “METHOD FOR IMPROVING BIOAVAILABILITY OF NAD+ DERIVATIVES” (HOBOOMLIFE BIO-TECHNOLOGY (SHENZHEN) CO., LTD., priority 2022, published 2024)

How the values were obtained:
NAD+ [1] = assay: Increasing the level of NAD+ by controlled-release NR microsphere 4, blood NAD+ by HPLC (Example 6); type: in vivo; conditions: SD rats, intragastric; for NAD+ level in blood: 100 mg/kg NR and/or 10 mg/kg apigenin
Procedure: (§1) 20 SD rats weighing about 200 g were purchased, and an experiment was carried out after one week of adaptive feeding. The 20 rats were divided into 5 groups, 4 rats per group (half male and half female). The rats in group 1 were not treated, the rats in group 2 were administered intragastrically with 100 mg/kg of NR, the rats in group 3 were administered intragastrically with 10 mg/kg of apigenin, the rats in group 4 were administered intragastrically with 100 mg/kg of NR and 10 mg/kg of apigenin at the same time, and the rats in group 5 were administered intragastrically with the controlled-release NR microspheres 4 containing 100 mg/kg of NR and 10 mg/kg of apigenin.
Blood was collected from the rat in each groups via the tail vein at time points of 2 h, 2.5 h, 3 h, 3.5 h, 4 h, 4.5 h, 5 h, 5.5 h, and 6 h, respectively, after intragastric administration of corresponding microspheres, and 0.1 mL of blood was collected each time by each rat. After the vein blood collected from each rat at each time point was treated, the NAD+ level in the blood sample was tested by high performance liquid chromatography (HPLC). The test results of 4 rats in each group were averaged.

[2] = in vivo; cited from earlier work
NAD+ [3] = assay: Increasing the level of NAD+ by controlled-release NR microspheres 4, 11, 12, blood NAD+ by HPLC (Example 18); type: in vivo; conditions: SD rats, intragastric; for NAD+ level in blood: 100 mg/kg NR and/or 10 mg/kg apigenin
Procedure: as §1, with “28 SD” for “20 SD”, “The 28” for “The 20”, “into 7” for “into 5”, “of apigenin,” for “of apigenin at the same time, and”, “microspheres 2 containing 100 mg/kg of NR and 10 mg/kg of apigenin, the rats in group 6 were administered intragastrically with the controlled-release NR microspheres 11 containing 100 mg/kg of NR and 10 mg/kg of apigenin, and the rats in group 7 were administered intragastrically with the controlled-release NR microspheres 12” for “microspheres 4”
Blood was collected from rat the in each groups via the tail vein at time points of 2 h, 2.5 h, 3 h, 3.5 h, 4 h, 4.5 h, 5 h, 5.5 h, and 6 h, respectively, after intragastric administration of corresponding microspheres, and 0.1 mL of blood was collected each time by each rat. After the vein blood collected from each rat in the groups at each time point was treated, the NAD+ level in the blood sample was tested by high performance liquid chromatography (HPLC). The test results of 4 rats in each group were averaged. […] There are time differences between a peak of the releasing of apigenin and a peak of the releasing NR in the controlled-release NR microsphere 4, the controlled-release NR microsphere 11, and the controlled-release NR microsphere 12 that are prepared based on different mass ratios of apigenin (the CD38 inhibitor) to the excipient and different mass ratios of NR to the excipient, and the time differences between a peak of the releasing of apigenin and a peak of the releasing NR in the three microspheres are consistent and are all about 0.5 h to 1.5 h.

NAD+ [4] = assay: Increasing the level of NAD+ by controlled-release NR microspheres 4, 7, 8, blood NAD+ by HPLC (Example 12); type: in vivo; conditions: SD rats, intragastric; for Content of NAD+ in blood: 100 mg/kg NR and/or 10 mg/kg apigenin
Procedure: as §1, with “28 SD rats” for “20 SD rats”, “feeding. The 28 rats were” for “feeding. The 20 rats were”, “divided into 7 groups, 4” for “divided into 5 groups, 4”, “same time, the rats” for “same time, and the rats”, “mg/kg of apigenin, the rats in group 6 were administered intragastrically with the controlled-release NR microspheres 7 containing 100 mg/kg of NR and 10 mg/kg of apigenin, and the rats in group 7 were administered intragastrically with the controlled-release NR microspheres 8 containing 100 mg/kg of NR and 10 mg/kg of apigenin.” for “mg/kg of apigenin.”
Blood was collected from each rat in the groups via the tail vein at time points of 2 h, 2.5 h, 3 h, 3.5 h, 4 h, 4.5 h, 5 h, 5.5 h, and 6 h, respectively, after intragastric administration of corresponding microspheres, and 0.1 mL of blood was collected each time by each rat. After the vein blood collected from the rat in each groups at each time point was treated, the NAD+ level in the blood sample was tested by high performance liquid chromatography (HPLC). The test results of 4 rats in each group were averaged. […] There are time differences between a peak of the releasing of apigenin and a peak of the releasing of NR in the controlled-release […], the controlled-release NR microsphere 7, and the controlled-release NR microsphere 8 that are prepared based on different ratios of apigenin (the CD38 inhibitor) to NR, and the time differences between a peak of the releasing of apigenin and a peak of the releasing of NR in the three microspheres are consistent and are all 0.5-1.5 h.

Structure (SMILES) | level of NAD+ in the rat compared with the blank group (in words) (NAD+ [1]) | NAD+ level in blood (NAD+ [1]; 2 h) [µM] | NAD+ level in blood (NAD+ [1]; 2.5 h) [µM] | NAD+ level in blood (NAD+ [1]; 3 h) [µM] | NAD+ level in blood (NAD+ [1]; 3.5 h) [µM] | NAD+ level in blood (NAD+ [1]; 4 h) [µM] | NAD+ level in blood (NAD+ [1]; 4.5 h) [µM] | NAD+ level in blood (NAD+ [1]; 5 h) [µM] | NAD+ level in blood (NAD+ [1]; 5.5 h) [µM] | NAD+ level in blood (NAD+ [1]; 6 h) [µM] | level of NAD+ in the rat compared with the blank group (in words) (NAD+ [3]) | NAD+ level in blood (NAD+ [3]; 2 h) [µM] | NAD+ level in blood (NAD+ [3]; 2.5 h) [µM] | NAD+ level in blood (NAD+ [3]; 3 h) [µM] | NAD+ level in blood (NAD+ [3]; 3.5 h) [µM] | NAD+ level in blood (NAD+ [3]; 4 h) [µM] | NAD+ level in blood (NAD+ [3]; 4.5 h) [µM] | NAD+ level in blood (NAD+ [3]; 5 h) [µM] | NAD+ level in blood (NAD+ [3]; 5.5 h) [µM] | NAD+ level in blood (NAD+ [3]; 6 h) [µM] | further results
O=c1cc(-c2ccc(O)cc2)oc2cc(O)cc(O)c12 [Apigenin, apigenin] | can increase the level of NAD+ in the rat | 141 | 148 | 176 | 171 | 160 | 156 | 143 | 144 | 138 | can increase the level of NAD+ in the rat | 132 | 150 | 179 | 173 | 161 | 157 | 166 | 138 | 140 | Metabolic half-life [2]: 91.8 h; level of NAD+ in the rat compared with the blank group (in words) (NAD+ [4]): can increase the level of NAD+ in the rat; Content of NAD+ in blood (NAD+ [4]; 2 h): 144 µM; Content of NAD+ in blood (NAD+ [4]; 2.5 h): 153 µM; Content of NAD+ in blood (NAD+ [4]; 3 h): 184 µM; Content of NAD+ in blood (NAD+ [4]; 3.5 h): 175 µM; Content of NAD+ in blood (NAD+ [4]; 4 h): 163 µM; Content of NAD+ in blood (NAD+ [4]; 4.5 h): 159 µM; Content of NAD+ in blood (NAD+ [4]; 5 h): 146 µM; Content of NAD+ in blood (NAD+ [4]; 5.5 h): 139 µM; Content of NAD+ in blood (NAD+ [4]; 6 h): 141 µM
NC(=O)c1ccc[n+]([C@@H]2O[C@H](CO)[C@@H](O)[C@H]2O)c1 [NR, nicotinamide riboside] | can increase the level of NAD+ in the rat | 131 | 196 | 181 | 163 | 142 | 154 | 159 | 139 | 141 | can increase the level of NAD+ in the rat | 142 | 203 | 188 | 154 | 167 | 152 | 145 | 144 | 135 | level of NAD+ in the rat compared with the blank group (in words) (NAD+ [4]): can increase the level of NAD+ in the rat; Content of NAD+ in blood (NAD+ [4]; 2 h): 128 µM; Content of NAD+ in blood (NAD+ [4]; 2.5 h): 200 µM; Content of NAD+ in blood (NAD+ [4]; 3 h): 180 µM; Content of NAD+ in blood (NAD+ [4]; 3.5 h): 159 µM; Content of NAD+ in blood (NAD+ [4]; 4 h): 162 µM; Content of NAD+ in blood (NAD+ [4]; 4.5 h): 157 µM; Content of NAD+ in blood (NAD+ [4]; 5 h): 149 µM; Content of NAD+ in blood (NAD+ [4]; 5.5 h): 142 µM; Content of NAD+ in blood (NAD+ [4]; 6 h): 134 µM
